The record followed here is US20250326785A1, “SODIUM SALT AND ETHANOLAMINE SALT OF 23-HYDROXYTORMENTIC ACID” (HUYABIO International, LLC, priority 2024, published 2025).

Series [1] in a line: Solubility in water (temperature dependence). The format is physicochemical. On the procedure:
Sodium salt of Pattern 5 was prepared using inverse solubility, with dissolution of HBI-3808 free acid in water at low temperature, and heating to reach super saturation, followed by anti-solvent addition. The solids isolated from this process were consistent with sodium salt of pattern 15, which can be converted to sodium salt of pattern 5 via drying under vacuum with exposure to elevated humidity (and the conversion proceeds via sodium salt of pattern 2 as an intermediate).

In series [2] the test system is Adult rats (Sprague Dawley) with MI by LAD ligation. Nature of the series: Rat myocardial infarction model: morphological studies (scar area and thickness, computed planimetry). In kind it is in vivo. Particulars: for scar areas: p<0.05 and 0.01 respectively. The source says:
(§1) Animal Model and Myocardial Infarction: Adult rats (Sprague Dawley (SD), body weight, -250 g) were used to generate a model with MI by LAD ligation of the heart as described in the previous study (Chongyu Zhang, Meng-Hsuan Hsieh, Song-Yi Wu, Shu-Hong Li, Jun Wu, Shi-Ming Liu, Hao-Ji Wei, Richard D. Weisel, Hsing-Wen Sung, Ren-Ke Li, “A self-doping conductive polymer hydrogel that can restore electrical impulse propagation at myocardial infarct to prevent cardiac arrhythmia and preserve ventricular function,” Biomaterials, Volume 231, 2020, 119672, ISSN 0142-9612). In brief, each rat was pre-medicated with 5% isoflurane in a chamber.
(§2) The selected rats having similar FS were randomly divided into 6 groups: (1) Negative control group (treated with 40% SBCD); (2) Positive control group (with HBI-3802, 2 mg/kg /day); (3) Dose 1 (HBI-3808 2 mg/kg/day); (4) Dose 2 (HBI-3808 0.64 mg/kg day); (5) Dose 3 (HBI-3808 0.2 mg/kg/day); and (6) Sham control (No myocardial infarction and treated with 40% SBCD).
Morphological Studies: After cardiac functional measurements, the animals were euthanized. The hearts were rapidly excised, fixed with 10% formaldehyde for 7 days, sliced into 2 mm thick slices, and photographed.
Cross-sectional areas of the left ventricular free wall (LVFW) and scar tissue were measured using computed planimetry. Surface areas of the epicardial LVFW and scar tissue were measured as the sum of the epicardial length multiplied by the slice thickness (2 mm). The surface area percentage of scar tissue in the LVFW was calculated as follows: [(epicardial scar area)/(epicardial LVFW area)×100]. The thickness of scar area was presented as an average of wall thickness measured at the middle and at each edge of the scar from the slice having the thinnest scar.

For series [3] the test system is unchanged. The series is described as follows: Rat myocardial infarction model: pressure-volume catheter measurement. The format is in vivo.
Text: as §1, §2
Oral Treatment: Six days after permanent LAD ligation, the selected rats received the first daily treatment. HBI-3808 (at 1 of the 3 doses) or 3802 at 2 mg/kg/day (1 ml/rat/day) delivered by gastric gavage daily for 14 days (2). 40% SB-CD alone (1 ml/rat/day) was similarly administered to rats in the control and sham groups.
Pressure-Volume Measurement: End-point functional and morphological assessments were performed at 21 days after first treatment (27 days post myocardial infarction). Each rat was anesthetized as described above (Myocardial Infarction), and ventilated. The sternotomy was performed, and a calibrated Millar conductance pressure-volume catheter (Millar Instruments, USA) was inserted into the LV cavity through the apex. Pressure and volume data were collected with the Millar software. Parallel conductance was evaluated after the injection of hypertonic saline solution into the right jugular vein, with the volume measurements corrected for the parallel conductance. To analyze the LV pressure and volume relationship, pressure and volume data were acquired, and real-time pressure-volume loops were constructed. Stroke work (SW) and dP/dt max (indices of systolic function) and dP/dt min and Tau_w (index of diastolic function) as well as LV volumes were compared between the groups.

For series [4], the system named is human embryonic stem cells (hESCs). The series is described as follows: Induction of differentiation of hESCs to cardiomyocytes. The format is cell-based. On the procedure:
In order to test the effect of HBI-3808 on human embryonic stem cells (hESCs) on stimulating differentiation to cardiomyocytes (CMs), hESCs were incubated in the presence of media (see legend, FIG. 31) or 100 ng/ml HBI-3808.

Series [5] concerns VEGF. Nature of the series: VEGF enrichment and angiogenesis induction by HBI-3808 conditioned media/supernatant. The format is cell-based.
Where [6] appears, read: 0.2 mg/kg/day, control vs treated.
Setting [7] is: 0.64 mg/kg/day, control vs treated.
Where [8] appears, read: 2 mg/kg/day, vs 2 mg/kg HBI-3802, 0.64 and 0.2 mg/kg HBI-3808 and control, p<0.05 and 0.01.

“Also recorded” adds a separate entry of the source.

As to `CC1CCC2(C(=O)[O-])CCC3(C)C(=CCC4C5(C)CC(O)C(O)C(C)(CO)C5CCC43C)C2C1(C)O.[Na+]` (centres unmarked) [HBI-3808 sodium salt of Pattern 5, sodium salt of 23-hydroxytormentic acid], the “solubility in water versus temperature” value in series [1] was “inverse solubility in water”.
On to `C[C@@H]1CC[C@]2(C(=O)O)CC[C@]3(C)C(=CCC4[C@@]5(C)C[C@@H](O)[C@H](O)[C@@](C)(CO)C5CC[C@]43C)C2[C@]1(C)O` (some centres unmarked) [HBI-3808, 23-hydroxytormentic acid], for which the scar thickness entry in series [2] (setting [6]) is “thinner in the control group”; in series [2] (setting [7]), “thinner in the control group”; in series [2] (2 mg/kg/day, 21 days after first treatment), “thinner in the control group”. The scar areas entry in series [2] (setting [6]) and in series [2] (setting [7]) was “larger in the control group” each time. Besides, the “scar (infarct) areas” value in series [2] (2 mg/kg/day, 21 days after first treatment, p<0.01) is recorded as “smaller infarct areas than the 2 mg/kg HBI-3802 group”. Moreover, the cardiac diastolic function entry in series [3] (0.2 mg/kg/day, vs control at 21 days after treatment, p<0.01) was “better cardiac diastolic function compared with control group”. For the same compound, the cardiac systolic function entry in series [3] (0.2 mg/kg/day, vs control at 21 days after treatment, p<0.05) is “better cardiac systolic function compared with control group”. Besides, the “left ventricular end systolic volumes (ESV)” value in series [3] (0.2 mg/kg/day, vs control, p<0.02) was “significantly smaller”; in series [3] (setting [8]), “smaller”. Also, the “Left ventricular end diastolic volumes (EDV)” value is “significantly smaller” in series [3] (0.64 mg/kg/day, vs 0.2 mg/kg group, p<0.01); “smaller” in series [3] (2 mg/kg/day, vs 0.64 and 0.2 mg/kg HBI-3808 and control, p<0.01). In addition, in series [3] (2 mg/kg/day, 21 days after treatment, vs 2 mg/kg HBI-3802, 0.64 and 0.2 mg/kg HBI-3808 and control, p<0.01), the “stroke work (SW) and dP/dt max (indices of systolic function)” value is listed as “significantly greater”. In series [3] (2 mg/kg/day, Day 21), the “end diastolic volumes compared with non-infarcted sham animals” value is on record as “the same; also recorded: equivalent to non-infarcted sham animals”. Besides, the “dP/dt min and Tau_w (index of diastolic function)” value in series [3] (setting [8]) was “also improved”. In series [4] (100 ng/ml HBI-3808, day 13), the “differentiation of hESCs to cardiomyocytes (CMs)” value is on record as “successfully stimulated hESCs to differentiate into viable, beating CMs by day 13”. Also, the “modulation of cardiac-associated genes” value in series [4] (100 ng/ml, days 1, 3, 6, 9, 13) is given as “produced detectable modulation of cardiac-associated genes”. The “VEGF in media harvested from treated CMs” value in series [5] is “enriched in VEGF”. Besides, the “angiogenesis in supernatant of CM cell suspensions” value in series [5] is on record as “induces angiogenesis”.
